From patent publication US10807992B2, “Single enantiomer antiparasitic compounds” (priority 2017, dated 2020)

Experiments:
[1] = system: Rhipicephalus sanguineus; experiment: In vitro contact activity against adult ticks (coated vial), R. sanguineus; conditions: for mortality at 0.006 µM: Trial 3, dose 0.006 μM; for mortality at 0.024 µM: Trial 3, dose 0.024 μM; for mortality at 0.098 µM: Trial 3, dose 0.098 μM; for mortality at 0.39 µM: Trial 3, dose 0.39 μM; for mortality at 1.56 µM: Trial 3, dose 1.56 μM; for mortality at 6.25 µM: Trial 3, dose 6.25 μM; for mortality at 25 µM: Trial 3, dose 25 μM; for mortality at 100 µM: Trial 3, dose 100 μM
Experimental: (§1) Rhipicephalus sanguineus, Dermacentor variabilis, Amblyomma americanum, (Ecto Services, Inc., Henderson, N.C.) and Ixodes scapularis (Oklahoma State University, Stillwater, Okla.) aged between 2-4 weeks post molt were held in an environmental chamber at 24° C., 80% humidity with 12-hour light/dark cycles.
(§2) For tick assays, vial caps were pre-drilled with a single hole in the center of each cap to allow air exchange. A filter paper (Whatman Grade 540 2.1 cm) was placed in the lid of each vial. An aliquot from each compound stock was added to an acetone/triton solution to achieve the desired top doses for the study. Serial dilutions were conducted from the top dose (i.e. 100 ppm) to achieve the desired titration range for EC50 and EC90 determination. For R. sanguineus, D. variabilis, and A. americanum, the final DMSO concentration in each test vial was 0.5%. For I. scapularis, compounds were solubilized directly in an acetone/triton solution due to I. scapularis' sensitivity to DMSO. A 459 μL aliquot of each compound formulation was transferred to a vial containing a Whatman Grade 540 2.1 cm filter paper. Vials were immediately placed on an unheated roller unit to allow for an even coating of the vial walls. After vials were coated, 41 μL of each compound formulation was added to the filter paper embedded in each vial cap. Each cap was allowed to dry. The vials were loosely capped and allowed to dry for a minimum of four hours in a chemical fume hood.
(§3) Compounds tested were: the C1 racemate, C1 (R) enantiomer, and the C1 (S) enantiomer. For Trial 3, the C1 (R) enantiomer and the C1 (S) enantiomer were further chiral purified to achieve >99% purity.
(§4) Ten adult ticks were added to each vial and held at 24° C., 80% humidity with 12-hour light/dark cycles. Adult ticks were assessed for percent mortality at various time points between 2 hours and 48 hours post infestation. Ticks were stimulated on a heated roller unit and evaluated. Ticks showing no movement, or very slow and uncoordinated movement were noted as dead.

[2] = system: Ixodes scapularis; experiment: In vitro contact activity against adult ticks (coated vial), I. scapularis; conditions: for mortality at 0.006 µM: Trial 1, dose 0.006 μM; for mortality at 0.024 µM: Trial 1, dose 0.024 μM; for mortality at 0.098 µM: Trial 1, dose 0.098 μM; for mortality at 0.39 µM: Trial 1, dose 0.39 μM; for mortality at 1.56 µM: Trial 1, dose 1.56 μM; for mortality at 6.25 µM: Trial 1, dose 6.25 μM; for mortality at 25 µM: Trial 1, dose 25 μM; for mortality at 100 µM: Trial 1, dose 100 μM
Experimental: as §1, §2, §3, §4

O=C(CC(F)(F)F)N1CC2(C1)OCc1cc(C3=NSC(c4cc(Cl)c(F)c(Cl)c4)(C(F)(F)F)C3)ccc12 (racemic) [C1 racemate, 1-[6-[5-(3,5-dichloro-4-fluoro-phenyl)-5-(trifluoromethyl)-4H-isothiazol-3-yl]spiro[1H-isobenzofuran-3,3′-azetidine]-1′-yl]-3,3,3-trifluoro-propan-1-one]
mortality at 0.006 µM ([1]; 2 h, Rep1): 0%
mortality at 0.006 µM ([1]; 2 h, Rep2): 0%
mortality at 0.024 µM ([1]; 2 h, Rep1): 0%
mortality at 0.024 µM ([1]; 2 h, Rep2): 0%
mortality at 0.098 µM ([1]; 2 h, Rep1): 0%
mortality at 0.098 µM ([1]; 2 h, Rep2): 0%
mortality at 0.39 µM ([1]; 2 h, Rep1): 0%
mortality at 0.39 µM ([1]; 2 h, Rep2): 0%
mortality at 1.56 µM ([1]; 2 h, Rep1): 0%
mortality at 1.56 µM ([1]; 2 h, Rep2): 0%
mortality at 6.25 µM ([1]; 2 h, Rep1): 0%
mortality at 6.25 µM ([1]; 2 h, Rep2): 0%
mortality at 25 µM ([1]; 2 h, Rep1): 30%
mortality at 25 µM ([1]; 2 h, Rep2): 10%
mortality at 100 µM ([1]; 2 h, Rep1): 10%
mortality at 100 µM ([1]; 2 h, Rep2): 0%
mortality at 0.006 µM ([1]; 6 h, Rep1): 0%
mortality at 0.006 µM ([1]; 6 h, Rep2): 0%
mortality at 0.024 µM ([1]; 6 h, Rep1): 0%
mortality at 0.024 µM ([1]; 6 h, Rep2): 0%
mortality at 0.098 µM ([1]; 6 h, Rep1): 0%
mortality at 0.098 µM ([1]; 6 h, Rep2): 0%
mortality at 0.39 µM ([1]; 6 h, Rep1): 10%
mortality at 0.39 µM ([1]; 6 h, Rep2): 0%
mortality at 1.56 µM ([1]; 6 h, Rep1): 0%
mortality at 1.56 µM ([1]; 6 h, Rep2): 0%
mortality at 6.25 µM ([1]; 6 h, Rep1): 50%
mortality at 6.25 µM ([1]; 6 h, Rep2): 20%
mortality at 25 µM ([1]; 6 h, Rep1): 90%
mortality at 25 µM ([1]; 6 h, Rep2): 100%
mortality at 100 µM ([1]; 6 h, Rep1): 100%
mortality at 100 µM ([1]; 6 h, Rep2): 100%
mortality at 0.006 µM ([1]; 12 h, Rep1): 0%
mortality at 0.006 µM ([1]; 12 h, Rep2): 0%
mortality at 0.024 µM ([1]; 12 h, Rep1): 0%
mortality at 0.024 µM ([1]; 12 h, Rep2): 0%
mortality at 0.098 µM ([1]; 12 h, Rep1): 0%
mortality at 0.098 µM ([1]; 12 h, Rep2): 0%
mortality at 0.39 µM ([1]; 12 h, Rep1): 10%
mortality at 0.39 µM ([1]; 12 h, Rep2): 0%
mortality at 1.56 µM ([1]; 12 h, Rep1): 90%
mortality at 1.56 µM ([1]; 12 h, Rep2): 50%
mortality at 6.25 µM ([1]; 12 h, Rep1): 80%
mortality at 6.25 µM ([1]; 12 h, Rep2): 80%
mortality at 25 µM ([1]; 12 h, Rep1): 90%
mortality at 25 µM ([1]; 12 h, Rep2): 100%
mortality at 100 µM ([1]; 12 h, Rep1): 100%
mortality at 100 µM ([1]; 12 h, Rep2): 100%
mortality at 0.006 µM ([2]; 2 h, Rep1): 0%
mortality at 0.006 µM ([2]; 2 h, Rep2): 0%
mortality at 0.024 µM ([2]; 2 h, Rep1): 0%
mortality at 0.024 µM ([2]; 2 h, Rep2): 0%
mortality at 0.098 µM ([2]; 2 h, Rep1): 0%
mortality at 0.098 µM ([2]; 2 h, Rep2): 0%
mortality at 0.39 µM ([2]; 2 h, Rep1): 0%
mortality at 0.39 µM ([2]; 2 h, Rep2): 0%
mortality at 1.56 µM ([2]; 2 h, Rep1): 0%
mortality at 1.56 µM ([2]; 2 h, Rep2): 0%
mortality at 6.25 µM ([2]; 2 h, Rep1): 0%
mortality at 6.25 µM ([2]; 2 h, Rep2): 0%
mortality at 25 µM ([2]; 2 h, Rep1): 0%
mortality at 25 µM ([2]; 2 h, Rep2): 0%
mortality at 100 µM ([2]; 2 h, Rep1): 0%
mortality at 100 µM ([2]; 2 h, Rep2): 0%
mortality at 0.006 µM ([2]; 6 h, Rep1): 0%
mortality at 0.006 µM ([2]; 6 h, Rep2): 0%
mortality at 0.024 µM ([2]; 6 h, Rep1): 0%
mortality at 0.024 µM ([2]; 6 h, Rep2): 0%
mortality at 0.098 µM ([2]; 6 h, Rep1): 0%
mortality at 0.098 µM ([2]; 6 h, Rep2): 0%
mortality at 0.39 µM ([2]; 6 h, Rep1): 0%
mortality at 0.39 µM ([2]; 6 h, Rep2): 0%
mortality at 1.56 µM ([2]; 6 h, Rep1): 0%
mortality at 1.56 µM ([2]; 6 h, Rep2): 0%
mortality at 6.25 µM ([2]; 6 h, Rep1): 0%
mortality at 6.25 µM ([2]; 6 h, Rep2): 0%
mortality at 25 µM ([2]; 6 h, Rep1): 10%
mortality at 25 µM ([2]; 6 h, Rep2): 40%
mortality at 100 µM ([2]; 6 h, Rep1): 100%
mortality at 100 µM ([2]; 6 h, Rep2): 50%
mortality at 0.006 µM ([2]; 12 h, Rep1): 0%
mortality at 0.006 µM ([2]; 12 h, Rep2): 0%
mortality at 0.024 µM ([2]; 12 h, Rep1): 0%
mortality at 0.024 µM ([2]; 12 h, Rep2): 0%
mortality at 0.098 µM ([2]; 12 h, Rep1): 0%
mortality at 0.098 µM ([2]; 12 h, Rep2): 0%
mortality at 0.39 µM ([2]; 12 h, Rep1): 0%
mortality at 0.39 µM ([2]; 12 h, Rep2): 10%
mortality at 1.56 µM ([2]; 12 h, Rep1): 0%
mortality at 1.56 µM ([2]; 12 h, Rep2): 0%
mortality at 6.25 µM ([2]; 12 h, Rep1): 0%
mortality at 6.25 µM ([2]; 12 h, Rep2): 70%
mortality at 25 µM ([2]; 12 h, Rep1): 50%
mortality at 25 µM ([2]; 12 h, Rep2): 70%
mortality at 100 µM ([2]; 12 h, Rep1): 100%
mortality at 100 µM ([2]; 12 h, Rep2): 100%
mortality at 0.006 µM ([2]; 24 h, Rep1): 0%
mortality at 0.006 µM ([2]; 24 h, Rep2): 0%
mortality at 0.024 µM ([2]; 24 h, Rep1): 0%
mortality at 0.024 µM ([2]; 24 h, Rep2): 30%
mortality at 0.098 µM ([2]; 24 h, Rep1): 0%
mortality at 0.098 µM ([2]; 24 h, Rep2): 20%
mortality at 0.39 µM ([2]; 24 h, Rep1): 50%
mortality at 0.39 µM ([2]; 24 h, Rep2): 50%
mortality at 1.56 µM ([2]; 24 h, Rep1): 10%
mortality at 1.56 µM ([2]; 24 h, Rep2): 30%
mortality at 6.25 µM ([2]; 24 h, Rep1): 80%
mortality at 6.25 µM ([2]; 24 h, Rep2): 100%
mortality at 25 µM ([2]; 24 h, Rep1): 90%
mortality at 25 µM ([2]; 24 h, Rep2): 100%
mortality at 100 µM ([2]; 24 h, Rep1): 100%
mortality at 100 µM ([2]; 24 h, Rep2): 100%
mortality at 0.006 µM ([2]; 48 h, Rep1): 10%
mortality at 0.006 µM ([2]; 48 h, Rep2): 0%
mortality at 0.024 µM ([2]; 48 h, Rep1): 10%
mortality at 0.024 µM ([2]; 48 h, Rep2): 30%
mortality at 0.098 µM ([2]; 48 h, Rep1): 0%
mortality at 0.098 µM ([2]; 48 h, Rep2): 60%
mortality at 0.39 µM ([2]; 48 h, Rep1): 70%
mortality at 0.39 µM ([2]; 48 h, Rep2): 100%
mortality at 1.56 µM ([2]; 48 h, Rep1): 90%
mortality at 1.56 µM ([2]; 48 h, Rep2): 80%
mortality at 6.25 µM ([2]; 48 h, Rep1): 100%
mortality at 6.25 µM ([2]; 48 h, Rep2): 100%
mortality at 25 µM ([2]; 48 h, Rep1): 100%
mortality at 25 µM ([2]; 48 h, Rep2): 100%
mortality at 100 µM ([2]; 48 h, Rep1): 100%
mortality at 100 µM ([2]; 48 h, Rep2): 100%
